Data taken from patent publication US20230157282A1, “Synergistic Preservative/Personal Care Composition With A Polyglycerol Ester” (ARCH UK BIOCIDES LTD, priority 2020, published 2023).

System: Pseudomonas aeruginosa ATCC 15442
Experiment: Suspension test: log reduction of Pseudomonas aeruginosa after a specified contact time
Assay type: cell-based
Protocol: The target organism Pseudomonas aeruginosa ATCC 15442 was taken from freezer stocks and grown for 24 hours on tryptone soy agar (TSA) at 37° C. A second subculture was produced from the first and grown with the same conditions. A test suspension was then created by adding loopfuls of organism to tryptone buffered saline and adjusting the cell concentration to 1×10^8 and 5×10^8 CFU/ml using an internally established calibration curve spectrophotometer at a wavelength of 600 nm. To establish the precise CFU/ml a 1 ml aliquot was then taken from the test suspension and serially diluted down to 10^−6 and 10^−7, 1 ml of each dilution was then plated in duplicate using the pour plate method on to TSA. The plates were then incubated for 24 hours at 37° C. and enumerated.
For each Active Ingredient tested a series of 3 samples were prepared in sterile distilled water;
Test sample 1—Active Ingredient alone (to measure basic efficacy of the Active Ingredient)
Test sample 2—Active Ingredient in combination with polyglyceryl-10 caprylate/caprate (to measure the efficacy of the combination of active ingredient and polyglycerol ester)
Control—A control sample of polyglyceryl-10 caprylate/caprate was prepared in deionized water to measure the efficacy of polyglycerol ester alone.
Each test sample was prepared at a concentration 10% higher than that of the target concentration to account for the dilution effect from the addition of the test organism suspension during the test procedure.
A test mixture was prepared by adding a 0.1 ml aliquot of test organism suspension to a tube followed by 0.9 ml of test sample (prepared as above). The combination was then mixed and a timer started immediately.
Upon achieving the specified contact time the test mixture was deactivated by adding a 0.1 ml aliquot of the test mixture to 0.9 ml of neutralizing broth and the whole solution mixed. The solution was left for 5 minutes to ensure the action of the active ingredient was effectively neutralized.
To quantify the surviving number of organisms in the neutralized test mixture, 4×0.025 ml aliquots were taken and spot plated onto the surface of dried TSA. The plates were then incubated for 24 hours at 37° C.
For spot plating, colonies from the incubated plates were enumerated using the lower count limit of <1 and the upper count limit of >150. […] For the upper limit, if 156 colonies were counted on a plate, >150 would be recorded and 150 would be used for the calculation.
[formula] • N0 is the number of cells per ml in test mixture at the beginning of contact time. It is one-tenth of the weighted mean of N due to the tenfold dilution by the addition of the test product.
Enumeration and Calculation of T (Test Mixture) • First, the mean average of cfu per 0.025 ml spots was established using the below calculation;
Log Reduction Calculations (N0− T) • Before calculating the log reduction both N0 and T were converted into a logarithm base 10 value. For example;
To calculate the final log reduction the following calculation was used;
The test procedure outlined above was used to test for synergy between polyglyceryl-10 caprylate/caprate (PG10CC) and the various active ingredients listed in Table 1. Varying concentrations were prepared and were tested at the times listed in Table 1 for the presence of Pseudomonas aeruginosa.

`O=c1[nH]sc2ccccc12` was tested, and the “Log Reduction” value (Benzisothiazoline 100 ppm, contact time 48 hours) was 3.84.
For `O=C(O)c1ccccc1` [Benzoic acid], the “Log Reduction” value (Benzoic acid 2000 ppm, contact time 2 hours) was less than 2.85.
With `O=C(O)CO` [Glycolic acid] the “Log Reduction” value (Glycolic acid 1000 ppm, contact time 30 minutes) was 2.85.
`CC(O)C(=O)O` (stereo not drawn) [Lactic acid] was tested, and the “Log Reduction” value (Lactic acid 2000 ppm, contact time 3 hours) was 4.03.
In the case of `[H]/N=C(\N/C(=N/[H])NCCCCCCNC(=N)NC(=N)Nc1ccc(Cl)cc1)Nc1ccc(Cl)cc1` [chlorohexidine], the “Log Reduction” value (chlorohexidine 64 ppm, contact time 5 minutes) is reported as 3.44.
For Zinc pyrithione, the “Log Reduction” value (Zinc pyrithione 400 ppm, contact time 7 days) was 2.88.
